The values below come from PMC10216263, “Favorable Preclinical Pharmacological Profile of a Novel Antimalarial Pyrrolizidinylmethyl Derivative of 4-amino-7-chloroquinoline with Potent In Vitro and In Vivo Activities” (Biomolecules, 2023).

Like-named read-outs stand apart in the source and are kept apart here.

Data set [1] has as its system Salmonella typhimurium TA100. In words: Bacterial Reverse Mutation Assay. The conditions noted are these: Positive Control 1.25 µg/plate, TA 100, with metabolic activation.
Procedure: (§6) using the preincubation method (30 min, 37°C) with and without phenobarbital-5,6-benzoflavone induced
(§7) MG3 was dissolved in distilled water (H2O) at
(§8) the maximum concentration of 40 mg/mL and tested in a preliminary range-finding test in all strains of
(§9) metabolic activation to determine the toxicity of the compound.
In data set [2] the test system is Escherichia coli WP2 uvrA. Put plainly: Bacterial Reverse Mutation Assay. As to conditions: Positive Control 5 µg/plate, with metabolic activation.
Procedure: as §6, §7, §8, §9
The subject of data set [3] is Salmonella typhimurium TA98. Put plainly: Bacterial Reverse Mutation Assay. The conditions noted are these: Positive Control 1.25 g/plate, TA 98, with metabolic activation.
Procedure: as §6, §7, §8, §9
For data set [4] the following is noted: cited from earlier work.
Data set [5] relates to P. berghei ANKA. In words: Oral curative activity against P. berghei ANKA. In kind it is in vivo, P. berghei in mice. The conditions noted are these: for Average survival (days) after infection: individual values in brackets.
Data set [6] deals with P. falciparum FCR3 (CQ-R). Put plainly: In vitro antimalarial activity, [3H]-hypoxanthine incorporation (LSHTM). In kind it is cell-based. The conditions noted are these: Plasmodium falciparum.
The subject of data set [7] is P. falciparum V1-S (CQ-R). The data set is described as above. The class given is cell-based. The conditions noted are these: Plasmodium falciparum, read-out: P. falciparum IC50 nM, V1-S (CQ-R).
Data set [8] deals with P. falciparum K1 (CQ-R). The description is as above. The class given is cell-based. As to conditions: Plasmodium falciparum.
Data set [9] concerns P. falciparum field isolates. In words: Chemosensitivity assay on field isolates. As to conditions: Plasmodium falciparum. The class given is cell-based. Here is the method: (§1) The 10 P. vivax and 10 P. falciparum isolates used in this study were obtained from Mae Sod District, Tak Province, Thailand. […] Isolates were collected in 5 mL lithium-heparinized tubes and sent to the laboratory within 5–6 h.

The test system of data set [10] is P. vivax field isolates. In words: Chemosensitivity assay on field isolates. In kind it is cell-based. As to conditions: Plasmodium vivax, read-out: P. vivax IC50 nM, Field Isolates. On the procedure:
as §1

In data set [11] the test system is P. falciparum TM90C2A (CQ-R). In words: In vitro antimalarial activity, [3H]-hypoxanthine incorporation (LSHTM). The conditions noted are these: Plasmodium falciparum, read-out: P. falciparum IC50 nM, TM90C2A (CQ-R). In kind it is cell-based.
Data set [12] relates to P. falciparum IPC5202 (ARM-R). Put plainly: microbe, parasite or virus in culture. In kind it is cell-based. The conditions noted are these: Plasmodium falciparum, 72 h. Here is the method: The strains D10 and 3D7 (CQ-Sensitive), and V1-S (CQ, pyrimethamine and cycloguanil resistant), K1 (CQ and PYR resistant), W2 and FCR3 (CQ-Resistant), TM90C2A (CQ, MQ, PYR and ATQ resistant) and IPC 5202 (MR4-1240, artemisinin-resistant, K13 mutation, and R539T) of Pf were cultured in vitro as described by Trager and Jensen with minor modifications. Briefly, parasites were maintained at 5% hematocrit (human type A-positive red blood cells) in RPMI 1640 (EuroClone, S.p.A. Milan, Italy) medium with the addition of 10% heat inactivate human serum or 1% AlbuMax (In vitrogen, Milan, Italy), 20 mM Hepes and 2 mM glutamine (Euroclone), at 37 °C in a standard gas mixture consisting of 1–3% O2, 5% CO2, and 92–94% N2.
Compounds were dissolved in either water or DMSO and then diluted with medium to achieve the required concentrations (final non-toxic DMSO concentration <1%). Asynchronous cultures of Pf with parasitaemia of 1–1.5% and 1% final hematocrit were aliquoted into 96-well flat-bottom microplates (Corning, Glendale, AZ, USA) with serial dilutions of test compounds and incubated for 72 h at 37 °C. Parasite growth was determined spectrophotometrically (OD650) by measuring the activity of the parasite lactate dehydrogenase (pLDH) according to a modified version of the method of Makler in control and drug-treated cultures.

In data set [13] the test system is P. falciparum K1 (CQ-R). Put plainly: In vitro combination study (isobologram, ∑FIC). The class given is cell-based.
The subject of data set [14] is P. falciparum D10 (CQ-S). Also on record: method as in PMID 18538567. The conditions noted are these: 72 h incubation, pLDH method, mean of 3 experiments; cited from earlier work.
The test system of data set [15] is P. falciparum 3D7 (CQ-S). In words: In vitro antimalarial activity, [3H]-hypoxanthine incorporation (LSHTM). The class given is cell-based. The conditions noted are these: Plasmodium falciparum, 3D7, read-out: P. falciparum IC50 nM, 3D7 (CQ-S).
Data set [16] has as its system Pf-3D7 gametocytes >95% Stage I-III. Put plainly: Gametocyte luciferase assay (3D7elo1-pfs16-CBG99). As to conditions: Plasmodium falciparum. The class given is cell-based, P. falciparum. Here is the method: (§2) In vitro activity of MG3 against P falciparum sexual gametocyte stages […]
(§3) luminescent transgenic 3D7 strain (3D7elo1-pfs16-CBG99) at two different stages (I-III and V) using the […]
(§4) Briefly, 100 µL of culture medium were removed from each well to increase hematocrit; 70 µL of resuspended culture were transferred to a black 96-well plate; 70 µL of D-luciferin (1 mM in citrate buffer 0.1 M, pH 5.5) were added. Luminescence measurements were performed after 10 min with 500 ms integration time using a Synergy4-BioTek reader.
(§5) (1 picture or pasted object on this page, not shown here)

Data set [17] relates to Pf-3D7 gametocytes >95% Stage V. In words: Gametocyte luciferase assay (3D7elo1-pfs16-CBG99). The conditions noted are these: Plasmodium falciparum, 3D7, read-out: Pf-3D7 gametocytes IC50 (nM), >95% Stage V. In kind it is cell-based, P. falciparum. On the procedure: as §2, §3, §4, §5
In data set [18] the test system is P. falciparum W2 (CQ-R). Also on record: method as in PMID 18538567. As to conditions: 72 h incubation, pLDH method, mean of 3 experiments; cited from earlier work.
Data set [19] concerns P. yoelii NS. Set-up: method as in PMID 19284751. The conditions noted are these: oral 4-day test; cited from earlier work.
For data set [20], the system named is P. berghei ANKA. Also on record: method as in PMID 19284751. As to conditions: oral 4-day test; cited from earlier work.
Data set [21] relates to P. falciparum K1 (CQ-R). Also on record: method as in PMID 17466277. The conditions noted are these: literature value; read-out: IC50 against K1 strain; cited from earlier work.
The mark [22] stands for this setting: 72 h, [3H]-hypoxanthine incorporation, mean of 3 experiments.
[23] abbreviates: FCR3, read-out: P. falciparum IC50 nM, FCR3 (CQ-R).
[24] abbreviates: K1, read-out: P. falciparum IC50 nM, K1 (CQ-R).

As a reminder, the IC50 is the concentration at which inhibition is half-maximal.

Take `Nc1ccc2cc3ccccc3cc2c1` [2-aminoanthracene, reference compound]: the “fold increase value (ratio treated/solvent revertant numbers)” value in data set [1] (I° Exp.) turned out to be 5.1; in data set [1] (Range finding), 7.7; in data set [2] (I° Exp.), 13.0; in [2] (Range finding), 8.2; in data set [3] (I° Exp.) it was 37.2; in data set [3] (Range finding), 26.5.

On to `CCN(CC)CCCNc1ccnc2cc(Cl)ccc12` [AQ13], for which the absolute bioavailability in [4] (in vivo) was 70%.

Regarding `C[C@H]1[C@H](OC(=O)CCC(=O)O)O[C@@H]2O[C@@]3(C)CC[C@H]4[C@H](C)CC[C@@H]1[C@@]24OO3` [ASN, artesunate], the “% Suppression of parasitaemia (on day 4 post infection)” value (“% Suppression of parasitaemia” below) in [5] (oral dose 3 x 30 mg/kg) was determined as 99.09%. For the same compound, the “Average survival (days) after infection” value in data set [5] (oral dose 3 x 30 mg/kg) is reported as 8 (7, 8, 8, 9, 9) days. For the same compound, the IC50 in [6] (FCR3, 72 h, [3H]-hypoxanthine incorporation, mean of 3 experiments, read-out: P. falciparum IC50 nM, FCR3 (CQ-R)) stood at 2.6 nM; in data set [7] (setting [22]), 2.7 nM; in data set [8] (K1, 72 h, [3H]-hypoxanthine incorporation, mean of 3 experiments, read-out: P. falciparum IC50 nM, K1 (CQ-R)), 2.6 nM; in data set [9] (mean of 10 field isolates, Thai Burmese Border, read-out: P. falciparum IC50 nM, Field Isolates) it was 4.2 nM; in [10] (mean of 10 field isolates, Thai Burmese Border), 2.3 nM; in data set [11] (setting [22]), 2.6 nM.

Consider `CCN(CC)Cc1cc(Nc2ccnc3cc(Cl)ccc23)ccc1O` [Amodiaquine, amodiaquine], for which, in data set [5] (oral dose 3 x 10 mg/kg), the “% Suppression of parasitaemia” value is recorded as 100% and the “Average survival (days) after infection” value is 11 (9, 11, 11, 12, 13) days.

Turning to `CCN(CC)CCCC(C)Nc1ccnc2cc(Cl)ccc12` (stereo not shown) [CQ, chloroquine], the IC50 in data set [12] (read-out: P. falciparum IC50 nM, IPC5202 (ARM-R)) was 163 nM; in data set [14] it was 16.5 nM; in data set [6] (setting [23]), 194 nM; in data set [7], 774 nM; in data set [8] (setting [24]) it was 708 nM; in [15], 12.1 nM. For the same compound, the IC50 was 252 nM in data set [9] (read-out: P. falciparum IC50 nM, Field Isolates, mean of 10 field isolates, Thai Burmese Border); 86.6 nM in data set [10]; 104 ± 34.7 nM in [16] (3D7, read-out: Pf-3D7 gametocytes IC50 (nM), >95% Stage I-III); 11700 ± 4120 nM in data set [17]; 145 nM in [11]; 294 nM in data set [18]. Moreover, the “Mean ∑FIC50 (95% CI)” value in data set [13] (in combination with ASN, K1, IC50 level) is 1.67 (1.44 – 1.90); in data set [13] (in combination with DHA, K1, IC50 level) it was 1.27 (1.16 – 1.38); in [13] (in combination with RKA-182, K1, IC50 level), 1.19 (0.77 – 1.60). Further, the “% Suppression of parasitaemia” value in [5] (oral dose 3 x 30 mg/kg) came to 99.84%. In addition, in [5] (oral dose 3 x 30 mg/kg), the “Average survival (days) after infection” value is 13 (12, 12, 13, 13, 13) days.

In the case of `C[C@H]1[C@@H](O)O[C@@H]2O[C@@]3(C)CC[C@H]4[C@H](C)CC[C@@H]1[C@@]24OO3` [DHA, dihydroartemisinin], the IC50 in [12] (read-out: P. falciparum IC50 nM, IPC5202 (ARM-R), 72 h incubation, pLDH method) is 2.2 nM; in data set [14] it was 3.9 nM; in data set [6] (setting [23]), 1.23 nM; in data set [7], 1.8 nM; in data set [8] (setting [24]) it was 1.4 nM; in [15] it was 3 nM. Moreover, in [18], the IC50 is 2 nM.

Take `CC(C)(C)NCc1cc(Nc2ccnc3cc(Cl)ccc23)ccc1F` [FAQ4, 4′-Fluoro-N-tert-butylamodiaquine]: in data set [19], the “ED50 (95% CI) Mean” value is given as 7.70 (6.70–8.90) mg/kg and the “ED90 (95% CI) Mean” value is reported as 10.60 (9.40–11.80) mg/kg. Moreover, in data set [20], the “ED50 (95% CI) Mean” value is 5.30 (4.10–6.80) mg/kg and the “ED90 (95% CI) Mean” value is 12.40 (10.7–14.4) mg/kg.

As to `CN(C)c1ccc2nc3ccc(=[N+](C)C)cc-3sc2c1` [Methylene Blue, reference compound], the IC50 came out at 59.6 ± 21.7 nM in data set [16] (3D7, read-out: Pf-3D7 gametocytes IC50 (nM), >95% Stage I-III, luciferase readout, 3D7elo1-pfs16-CBG99) and 145 ± 42.6 nM in data set [17].

In the case of `CC(C)(C)NCc1ccc(Nc2ccnc3cc(Cl)ccc23)cc1O` [NTBI, N-tert-butyl isoquine], the absolute bioavailability in data set [4] (literature value) was 68%.

As for `Clc1ccc2c(N3CCN(CCCN4CCN(c5ccnc6cc(Cl)ccc56)CC4)CC3)ccnc2c1` [piperaquine], the IC50 in data set [21] is 49 nM.
